According to PubChem BioAssay AID2253 (Southern Research Specialized Biocontainment Screening …, 2010):

tested on: THP-1 viability, CellTiter-Glo luminescence, 72 h; assay: human monocytic cell viability reduction – S. typhimurium screen hits, cytotoxicity control for Salmonella PhoP regulon inhibitors, dose response (AID 2253)

Point of comparison: `N=c1n(Cc2ccc(Cl)cc2)c2ccccc2n1CC(O)c1ccco1` (stereo not given), EC50 11.8 µM. Against it:
- Clc1ccc(-c2c[n+](Cc3ccc(Cl)cc3Cl)c3n2CCCCC3)cc1 — 3.3-fold lower, 3.61 µM
- COc1ccccc1-c1cc(C(=O)Nc2cc(C)nn2-c2ccccc2)no1 — 2.2-fold higher, 25.6 µM
- CN(Cc1ccccc1)CC(O)COc1ccc(CNCc2ccc(Cl)s2)cc1 (stereo not given) — 2.8-fold higher, 33.4 µM
- NC1=NC[C@H](Cc2ccccc2)N1CCCCC1CCCCC1 — 3.2-fold lower, 3.71 µM
- Cc1[nH]nc2c1C(c1cc(Br)cs1)C(C#N)=C(N)O2 (stereo not given) — within 1.5-fold, 11.2 µM
- Cc1cc(C(=O)N/N=C/c2cc(Br)cc(Br)c2OC(=O)c2ccccc2)n[nH]1 — 1.6-fold lower, 7.53 µM
- N=c1n(Cc2ccccc2)c2ccccc2n1CC(O)COc1ccc(Cl)cc1Cl (stereo not given) — 4.1-fold lower, 2.91 µM
- CC1CCCC(C)N1/N=C/c1c[nH]c2ccc(Br)cc12 (stereo not given) — within 1.5-fold, 14.4 µM
- O=C(NNC(=O)c1cnccn1)c1ccc(Cl)cc1 — 2.1-fold higher, 24.5 µM
- CCCC(=O)NC(c1ccc(N(C)C)cc1)c1ccc2cccnc2c1O (stereo not given) — 19-fold lower, 0.61 µM
- COc1ccccc1-c1c(C#N)c(N)nc2c1CCc1ccccc1-2 — within 1.5-fold, 13.2 µM
- O=C(CN1CCCc2ccccc21)N/N=C/c1c(O)ccc2ccccc12 — 3.8-fold lower, 3.11 µM
- O=C(C[n+]1cc(-c2ccccc2)n2c1CCCCC2)c1ccc(Cl)cc1 — 2.4-fold higher, 28.9 µM
- CCn1cc(C(=O)O)c(=O)c2cc(F)c(N3CCN(C(=S)NC(=O)c4c(OC)cccc4OC)CC3)cc21 — 3.7-fold higher, 43.5 µM
- COc1cccc(-n2c(SCc3cc(=O)oc4cc(O)c(O)cc34)nc3ccccc3c2=O)c1 — within 1.5-fold, 15.1 µM
- CCCCCCCCCCOC(=O)Cn1c(COc2ccccc2OC)[n+](C)c2ccccc21 — 5.4-fold lower, 2.2 µM
- NC(N)=N/N=C/c1ccc(OCc2ccc(Cl)cc2)cc1 — 4.1-fold lower, 2.91 µM
- Cc1[nH]c2ccccc2c1C(O)CN1CCN(c2cccc(C(F)(F)F)c2)CC1 (stereo not given) — within 1.5-fold, 9.39 µM
- CC(C)c1ccc(NC(=O)N(CCc2nc3ccccc3[nH]2)C2CCCC2)cc1 — 3.7-fold higher, 43.1 µM
- CC1(C)CC(=O)C2=C(C1)OC1=C(C(=O)CC(C)(C)C1)C2c1ccc(O)cc1O — 2.2-fold lower, 5.36 µM
- CCc1ccc2[nH]c(=O)c(CN(Cc3ccccc3)C(=O)Nc3ccccc3OC)cc2c1 — 3.7-fold higher, 43.1 µM
- Cc1cc(C)c2ccc(N)nc2c1O — 4.1-fold lower, 2.91 µM
- N/C(=N/OC(=O)c1ccccc1Cl)c1ncc([N+](=O)[O-])s1 — 1.6-fold higher, 18.8 µM
- O=C(N/N=C/c1cc(Cl)ccc1O)c1cccnc1 — 5.7-fold lower, 2.08 µM
- c1ccc(CNc2c3c(nc4ccccc24)CCC3)cc1 — within 1.5-fold, 11.3 µM
- Cc1sc2ncnc(N/N=C/c3ccccc3O)c2c1C — 23-fold lower, 0.51 µM
- Cc1ccc2[nH]c3c(NCc4ccco4)ncnc3c2c1 — 2.9-fold higher, 34.7 µM
- C[C@H]1c2cccc(O)c2C(O)=C2C(=O)[C@]3(O)C(O)=C(C(N)=O)C(=O)[C@@H](N(C)C)[C@@H]3[C@@H](O)[C@@H]21 — 2.3-fold higher, 27.5 µM
- Cc1ccc(C(C[N+](=O)[O-])c2c(-c3ccccc3O)[nH][nH]c2=O)cc1 (stereo not given) — 2.3-fold higher, 27.7 µM
- O=C(c1ccc(CSc2nc3ccncc3[nH]2)cc1)N1CCN(c2cccc(Cl)c2)CC1 — within 1.5-fold, 15.3 µM
- COc1ccc(-c2csc(NCc3ccco3)n2)cc1 — 3.3-fold higher, 38.5 µM
- c1cnc2c(c1)ccc1cccnc12 — 3.1-fold lower, 3.8 µM
- Oc1ccc(CN2CCCc3ccccc32)c2cccnc12 — 3.5-fold lower, 3.37 µM
- O=[N+]([O-])c1cc(CN2CCCC2)c2cccnc2c1O — 3.5-fold higher, 41.2 µM
- O=Cc1ccc(O)c2ncccc12 — 3.1-fold lower, 3.79 µM
- c1ccc2c(CCNCc3ccc4c(c3)OCO4)c[nH]c2c1 — 2.1-fold higher, 24.2 µM
- Oc1c(CN2CCN(c3ccc(F)cc3)CC2)cc(Cl)c2cccnc12 — 1.9-fold lower, 6.36 µM
- Cc1nc(N)nc(N)c1/C=C/C(C)(C)c1ccc(Cl)cc1 — lower, < 0.1 µM
- C#CCOCCOCCOCCNc1nc(N2CCN(C(=O)CCCCCCCCCCNC(=O)[C@H](CCCN=C(N)N)n3cc(C[C@@H](C)CC)nn3)CC2)nc(N2CCN(C(=O)CCCCCCCCCCNC(=O)[C@@H]([C@H](C)CC)n3cc(CCCCCN)nn3)CC2)n1 — 2.2-fold lower, 5.33 µM
- CCc1ccc(S(=O)(=O)/N=C2/C=C(Sc3ncn[nH]3)C(=O)c3ccccc32)cc1 — 2.8-fold lower, 4.28 µM
- C/C(=N\Nc1nc2ccccc2[nH]1)c1ccc(Cl)s1 — 2.8-fold higher, 32.6 µM
- O=c1[nH][nH]c(-c2ccccc2O)c1C(C[N+](=O)[O-])c1ccc(Br)cc1 (stereo not given) — within 1.5-fold, 16 µM
- CO[C@H]1C=CO[C@@]2(C)Oc3c(C)c(O)c4c(O)c(c(C=NN5CCN(C)CC5)c(O)c4c3C2=O)NC(=O)C(C)=CC=C[C@H](C)[C@H](O)[C@@H](C)[C@@H](O)[C@@H](C)[C@H](OC(C)=O)[C@@H]1C — 2.8-fold higher, 33 µM
- Cc1ccc(Nc2nc(Cl)nc(N(C)C#N)n2)cc1 — within 1.5-fold, 13.6 µM
- NNC(=O)CNC(c1ccccc1)c1cc(Br)ccc1NC(=O)c1ccc(Br)cc1 (stereo not given) — 3.3-fold higher, 39.5 µM
- C/C(=C\C(=O)c1cccnc1)Nc1ccc(O)cc1 — 4-fold higher, 47.6 µM
- N/C(=N\OC(=O)N1c2ccccc2Sc2ccccc21)c1ccccc1 — 2.1-fold higher, 25.1 µM
- Cc1ccc(-c2cc(-c3ccc(Cl)cc3)c(C#N)c(N)n2)o1 — 2.2-fold higher, 26.2 µM
- Cc1cc(Nc2ccccc2)nc2cc(O)ccc12 — 3.1-fold higher, 36.6 µM
- Cc1ccc(C(=O)N/N=C/c2cc(Br)ccc2O)cn1 — 6.6-fold lower, 1.78 µM
- C(=C\c1ccccc1)/C=N/Nc1nc2ccccc2[nH]1 — within 1.5-fold, 15.5 µM
- Cc1ccc(Cn2c(=N)n(CC(=O)c3ccc([N+](=O)[O-])cc3)c3ccccc32)cc1 — within 1.5-fold, 8.18 µM
- C[CH2][Hg][S]c1ccccc1C(=O)O — 17-fold lower, 0.71 µM
- O=C1NC(=S)S/C1=C\C=C\c1ccc([N+](=O)[O-])o1 — within 1.5-fold, 9.07 µM
- O=S(=O)(Nc1cc(Sc2ncn[nH]2)c(O)c2ccccc12)c1ccccc1 — 2.2-fold lower, 5.35 µM
- Cc1ccc(C(=O)N/N=C/c2ccc([N+](=O)[O-])s2)cc1 — within 1.5-fold, 12.3 µM
- Cc1ccc(C)c(/C=C/C(=O)c2ccccc(=O)c2O)c1 — within 1.5-fold, 9.58 µM
- COc1ccc(C(=O)N/N=C/c2sc3ccccc3c2O)cc1 — 3.8-fold lower, 3.13 µM
- O=C(/C=C/c1ccco1)NC(=S)Nc1ccc(N2CCCC2)cc1 — within 1.5-fold, 9.59 µM
- C=CCNc1ncnc2c1[nH]c1ccccc12 — 3.9-fold higher, 46 µM
- CCOC(=O)c1sc(NC(=O)Nc2ccc(Cl)cc2)cc1C — within 1.5-fold, 10.3 µM
- CCCCCCCCCCCCCCCC[n+]1cccc2ccccc21 — 44-fold lower, 0.27 µM
- O=C(Nc1nc(-c2ccncc2)cs1)C1c2ccccc2Oc2ccccc21 — within 1.5-fold, 16.9 µM
- C=CCNc1ncnc2c1[nH]c1ccc(Cl)cc12 — within 1.5-fold, 12.2 µM
- O=[N+]([O-])c1ccc(NCCCNS(=O)(=O)c2ccccc2)c(Cl)c1 — 3.6-fold higher, 42.4 µM
- O=C(N/N=C/C1CC=CCC1)c1ccc(Cl)cc1O (stereo not given) — 2.2-fold higher, 26.4 µM
- NC1=NC[C@H](c2ccccc2)N1CCCCC1CCCCC1 — 2.3-fold lower, 5.06 µM
- O=[N+]([O-])c1cc(F)c2cccnc2c1O — 2.6-fold higher, 30.5 µM
- COc1ccc(-n2c(CNc3ccc(C)cc3)nnc2SCc2ccccc2)cc1 — 2.8-fold higher, 33.3 µM
- CC(C)C(=O)NC(c1cccc([N+](=O)[O-])c1)c1ccc2cccnc2c1O (stereo not given) — 23-fold lower, 0.51 µM
- O=[N+]([O-])c1cc(O)c2ncccc2c1 — 1.8-fold lower, 6.48 µM
- C[C@H]1O[C@@H](n2cc(F)c(=O)[nH]c2=O)[C@H](O)[C@@H]1O — 3.7-fold higher, 43.8 µM
- O=C(Oc1c(CN2CCOCC2)cc(Cl)c2cccnc12)c1ccc(F)cc1 — 1.7-fold lower, 7.06 µM
- COc1ccc(O)c(/C=c2/sc3nc4cc(C)c(C)cc4n3c2=O)c1 — 2.9-fold higher, 34.1 µM
- Fc1ccc(Nc2nc(NCc3ccco3)c3ccccc3n2)cc1 — 1.8-fold lower, 6.54 µM
- O=C(Nc1nc2cc3c(cc2s1)OCO3)C1=COCCO1 — 1.8-fold lower, 6.67 µM
- c1ccc2c(C3=NNC(=NC4CC4)SC3)c[nH]c2c1 — within 1.5-fold, 17.2 µM
- Nc1ncn([C@@H]2O[C@H](CO)[C@@H](O)[C@H]2O)c(=O)n1 — within 1.5-fold, 17.4 µM
- Oc1cccc(Nc2nc(NCC3CCCO3)c3ccccc3n2)c1 (stereo not given) — 5.2-fold lower, 2.26 µM
- O=C(C[n+]1cc(-c2ccc(Cl)cc2)n2c1CCC2)Nc1nc(-c2ccccc2)cs1 — 3.7-fold higher, 43.3 µM
- Cc1ccc(S(=O)(=O)N(CC(=O)N=Nc2c(O)[nH]c3ccccc23)c2ccc(C)c(C)c2)cc1 — within 1.5-fold, 12.4 µM
- c1ccc2c(c1)CCN(c1ncnc3c1[nH]c1ccccc13)C2 — within 1.5-fold, 10.7 µM
- COc1ccc(C(=O)Cn2nc(CNc3ccc(Br)cc3)[n+]3c2CCCCC3)cc1 — 1.5-fold lower, 7.74 µM
- O=C(NCCN1CCOCC1)c1ccc2ccccc2c1 — lower, < 0.1 µM
- O=C(Nc1cccc(Cl)c1)Nc1ccc2c(c1)OCO2 — 3.1-fold higher, 36.8 µM
- CCCCCC(CC(=O)NO)C(=O)NC(C(=O)N1CCCC1CO)C(C)C (stereo not given) — 3.1-fold higher, 36.2 µM
- Cc1cccc(NC(=O)Cn2c(/C=C/c3ccccc3)nc3ccccc32)c1 — 3.8-fold higher, 45 µM
- COc1cccc(Nc2nc(-c3sc(NC(=O)c4ccco4)nc3C)cs2)c1 — 3.4-fold higher, 40.5 µM
- Cc1ccc(S(=O)(=O)c2c(C(=O)c3ccccc3)cnc3cc4c(cc23)OCCO4)cc1 — 2.6-fold higher, 30.2 µM
- O=C(N/N=C/c1cn(-c2ccccc2)nc1-c1ccc(F)cc1)c1ccc2c(c1)OCO2 — 3-fold higher, 35 µM
- C1=C(CCNc2ncnc3c2[nH]c2ccccc23)CCCC1 — 1.9-fold lower, 6.37 µM
- Cc1conc1NC(c1cccs1)c1ccc2cccnc2c1O (stereo not given) — 2.1-fold lower, 5.5 µM
- O=C(Oc1c(Cl)cc(Cl)c2cccnc12)c1ccco1 — within 1.5-fold, 11.5 µM
- Cc1nc2c(=O)n(C)c(=O)nc-2n(C)n1 — 9.7-fold lower, 1.22 µM
- O=C(CN1CC(c2ccccc2)CC1=O)N/N=C/c1cc(Br)ccc1O (stereo not given) — 3.2-fold lower, 3.74 µM
- CN(C)c1ccc(/C=C/c2ccc3ccccc3[n+]2C)cc1 — 39-fold lower, 0.3 µM
- CCOC(=O)Cn1nnnc1C(C(C)C)N(Cc1cccs1)Cc1cc2cc(C)ccc2[nH]c1=O (stereo not given) — within 1.5-fold, 10.5 µM
- C/C(CC(=O)Nc1ccc(Cl)c(C(F)(F)F)c1)=N\NC(=O)c1cc2ccccc2cc1O — within 1.5-fold, 8.06 µM
- Cc1cc(C)c2nc(NNC(=O)c3ccc(S(=O)(=O)N4CCCCC4)cc3)sc2c1 — 2.5-fold lower, 4.69 µM
- C#CCOCCOCCOCCNc1nc(N2CCN(C(=O)CCCCCCCCCCNC(=O)[C@H]([C@@H](C)CC)n3cc(CCCCN=C(N)N)nn3)CC2)nc(N2CCN(C(=O)CCCCCCCCCCNC(=O)[C@H](CCCN=C(N)N)n3cc(C[C@@H](C)CC)nn3)CC2)n1 — 3.3-fold lower, 3.57 µM
- C[C@H]1c2cccc(O)c2C(O)=C2C(=O)[C@]3(O)C(O)=C(C(N)=O)C(=O)[C@@H](N(C)C)C3[C@@H](O)C21 (stereo not given in full) — 2.6-fold higher, 30.7 µM
- O=C(Nc1nnc(-c2cccs2)o1)c1cccc(Oc2ccccc2)c1 — 1.7-fold higher, 19.6 µM
- CC1OC(Nc2cccc3ccccc23)C(O)C(O)C1O (stereo not given) — within 1.5-fold, 12 µM
- O=C(NCCCc1ccccc1)Nc1cccc(Cl)c1 — 3.1-fold higher, 37 µM
- O=C(N/N=C\c1cccc([N+](=O)[O-])c1O)C1COc2ccccc2O1 (stereo not given) — 1.8-fold higher, 21.5 µM
- CN1C(=O)/C(=C/c2cccn2-c2ccc3ccccc3c2)C(=O)NC1=S — within 1.5-fold, 16.6 µM
- OCc1ccc(O)c2ncccc12 — 3.6-fold lower, 3.26 µM
- C=CCN(C(=O)c1cccc(S(=O)(=O)N2CCN(C)CC2)c1)c1nc(-c2ccccc2)cs1 — 4.2-fold higher, 49.4 µM
- O=C(Cn1nc(CNc2ccc(Cl)cc2)[n+]2c1CCCCC2)c1ccc(Br)cc1 — within 1.5-fold, 11.6 µM
